Consider 3 compounds from patent US20260306460A1, “COMPOSITION FOR REMOVING AND INHIBITING SENESCENT CELLS, AND USES THEREOF” (LIFECEUTIX CO., LTD., priority 2023, published 2026).

The subject of one series is SAOS-2. The series can be described thus: Suppression of doxorubicin-senescent SAOS-2 tumors in nude mice, Example 19. In kind it is in vivo, mouse. The note with it: after DOX 10 mg/kg ip; 21 days daily; LX-5701 360 mg/kg po, LX-2101 20 mg/kg ip, LX-2102 10 mg/kg ip; DOX repeated as control. On the procedure: Seven-week-old male BALB/c nude mice (KRIBB Laboratory Animal Resource Center) were acclimated to the experimental environment for one week, after which they were randomly assigned to experimental and control groups. Evaluation was performed using the same method as in Example 2-1 of WO2023-085787 A1. Cultured human osteosarcoma cell lines, SAOS-2 (10^6 cells), were mixed in phosphate-buffered saline (PBS) and administered subcutaneously to anesthetized mice using 2% isoflurane (Sigma). When the tumors reached approximately […], doxorubicin (10 mg/kg) was mixed in a 1:1 solution of distilled water and PBS (pH 7.2) and administered intraperitoneally to induce tumor senescence. After 10 days, LX-5701 mixed in PBS at a concentration of 360 mg/kg was administered orally daily for 21 days, or LX-2101 mixed in PBS solution with 5% DMSO at a concentration of 20 mg/kg or LX-2102 mixed in PBS with 5% DMSO at a concentration of 10 mg/kg was administered intraperitoneally daily for 21 days, and then the tumor size was measured. The control group was repeatedly administered a solution mixed with doxorubicin, and then the tumor size was measured.

The subject of series [1] is naturally aged C57BL6J mice. Description: Geriatric depression and anxiety in aged mice, Example 21-8. In kind it is in vivo, mouse. The note with it: aged mice. From the text: The amount of senescent-associated secretory factor (SASP) in serum and tissues collected from mice of Examples 21-5 and 21-6 was reduced by treatment with LX-5701, LX-2101, or LX-2102. It was confirmed that removing senescent cells, which increase with aging in mice, and effectively reducing the amount of senescent-associated secretory factor (SASP) can improve symptoms of geriatric depression and anxiety.

Series [2] has as its system obesity-induced aged C57BL6J mice. The series can be described thus: Anxiety, depression, lethargy (open field test) in obesity-aged mice, Example 23-4, Table 44. In kind it is in vivo, mouse. The note with it: obesity-aged mice. The method, boiled down:
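Male C57BL6J mice were made obese on a high-fat diet from 15 weeks of age. Compounds were given daily for 21 days: LX-3002 10 mg/kg orally, LX-5701 360 mg/kg orally, LX-6807 1 mg/kg intraperitoneally, with vehicle-treated controls. Open-field activity was then expressed relative to obese untreated mice set at 100%.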

A further series concerns senescent A549 cells. The series can be described thus: Viability of senescent A549 cancer cells (CellTiter-Glo), Example 12. The following applies: Homo sapiens, A549, 0 μM = 100, read-out: Survival. In kind it is cell-based, human. Background: Cellular ATP, detected with luciferase, serves as a proxy for viable cell number.
A further series deals with senescent foreskin cells. Description: Survival of senescent human cells treated with supernatant (secreted fluid) from death-induced cells, Example 13. In kind it is cell-based. The note with it: senescent treated cells, 3 days; for viability at 30 µM: Homo sapiens, 72 h.
Series [3] relates to proliferating foreskin cells. The series can be described thus: Survival of proliferating human cells treated with supernatant (secreted fluid) from death-induced cells, Example 13. The following applies: 3 days; for viability at 30 µM: Homo sapiens, 72 h. The series is classed as cell-based. How it is done:
(§1) After 3 days, cell viability was measured using CellTiter-Glo Luminescent Cell Viability Assay (Promega) or light microscopy.
After treating cells with the test compound at a high concentration that induces the death of most cells in both non-senescence-induced and senescence-induced cells, the cells were washed three times with PBS to remove the test compound, and replaced with fresh medium and cultured for an additional 3 hours at the time when the compound has entered into the cell but has not yet induced cell death (approximately 1 to 3 hours after compound treatment). During this additional culture, by checking with an optical microscope, etc., the medium supernatants containing secreted fluid from normally proliferating and senescent cells in which cell death was induced were obtained. The obtained medium supernatant was replaced with the medium of normally proliferating and senescent cells, respectively, and cell survival rate was measured after 3 days.

Series [4] deals with HMGN1 secreted from senescent A549 cells. Description: HMGN1 secretion (ELISA) from senescent A549 cancer cells, Example 12.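 Also: A549 cells made senescent by doxorubicin exposure, with DMSO-treated cells serving as the non-senescent control.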 The following applies: senescent untreated = 100%; 30 μM; 90 μM for LX-305, 905, 1302, 1601, 1603, 2003, 2702, 2901, 3106; 270 μM for LX-1103, 2005, 2007. The series is classed as cell-based, human.
Experimental: Cells were treated with doxorubicin or control (DMSO) and cultured.
In the next series the test system is senescent human cells. The series can be described thus: Viability of doxorubicin-induced senescent human cells (CellTiter-Glo), Example 11. In kind it is cell-based.
Series [5] relates to non-senescent proliferating human cells. Description: Effect on non-senescent (proliferating) human cells. In kind it is cell-based. The note with it: normally proliferating foreskin cells; 30 μM, 3 days.
Excerpt: Based on the results of Example 10 of WO2023-085787 A1, compounds that induce the death of senescent cells through a mechanism similar to LX-112, unlike existing senescent cell removers such as ABT-263, were screened based on HMGN1. […] The following test compounds were synthesized by and purchased from Medchemexpress, Selleckchem, Cayman, Medkoo, Sigma, Molport, Enzo, TCI, Santa Cruz, REONSIMI, Abcam, Alfa Aesar, APExBIO, BOCSCI, Merck, Thermo Fisher Scientific, R&D Systems, ChemFaces, Aobious, etc. […] In cells in which senescence was not induced by treatment with the control group (DMSO), the amount of HMGN1 above the effective value (sensitivity: 35 pg/ml), analysis limit, was not detected in both untreated and treated conditions with the test compound. On the other hand, in cells where senescence was induced by treatment with doxorubicin, the amount of HMGN1 was measured at 80 to 90 pg/ml. […]
as §1
Using the same method as Example 11, compounds that induce senescent cell death through a mechanism similar to that of LX-112 (ethaselen (1,2-[bis(1,2-benzisoselenazolone-3 (2H)-ketone)]ethane)) were screened based on HMGN1 and others. […] On the other hand, in cells senescent with doxorubicin, an amount of HMGN1 of […] was measured. […]

The next series has as its system Splnocyte. The following applies: cited from earlier work.
Setting [6] is: supernatant from death-induced proliferating cells.
[7] abbreviates: supernatant from death-induced senescent cells.

For the compound `COc1cccc2c1C(=O)c1c(O)c3c(c(O)c1C2=O)C[C@@](O)(C(=O)CO)C[C@@H]3O[C@H]1C[C@H](N)[C@H](O)[C@H](C)O1` [DOX, doxorubicin], the “Tumor Diameter” value in the series with SAOS-2 is 16.1 (±0.9) mm.
As for `CC(C)c1onc(C(=O)N2CCN(C(c3ccccc3)c3ccccc3)CC2)c1[N+](=O)[O-]` [LX-401], the “amount of SASP, p16, SA-β-gal, lipofuscin” value in [1] is “reduced”. The “symptoms of geriatric depression and anxiety” value in series [1] was “improved”. For the same compound, in series [2], the geriatric depression entry is “similarly improving geriatric depression”. Moreover, the viability at 1.1 µM in the series with senescent A549 cells (1.1 μM) stood at 89.7%; with senescent human cells (Homo sapiens, 1.1 μM, 0 μM = 100, read-out: Survival), 20.4%. Moreover, the viability at […] in the series on senescent A549 cells (3.3 μM) is 68.6%; in the series on senescent human cells (Homo sapiens, 3.3 μM, 0 μM = 100, read-out: Survival), 12.4%. Also, the viability at 10 µM in the series on senescent A549 cells (10 μM) is 42.1%; in the series on senescent human cells (Homo sapiens, 10 μM, 0 μM = 100, read-out: Survival) it was 10.6%. Moreover, the viability at 30 µM in the series with senescent A549 cells (30 μM) stood at 16.8%; in the series on senescent foreskin cells (setting [6]) it was 48.2%; with senescent foreskin cells (setting [7]), 42.2%; in series [3] (setting [6]) it was 88.1%; in series [3] (setting [7]), 95.1%; in the series with senescent human cells (Homo sapiens, 30 μM, 0 μM = 100, read-out: Survival), 7.8%. Further, the Survival with senescent foreskin cells (supernatant from No Cells) is reported as 101.1 (±5.5) %; in [3] (supernatant from No Cells), 97.9 (±7.2) %. The HMGN1 in series [4] is 277%. Besides, the “induced death of cells” value is recorded as “induced the death of most cells” with senescent human cells (senescent foreskin cells, 30 μM, 3 days) and “induced the death of most cells” in series [5].
Turning to `CC(O)[C@@H]1NC(=O)COCCOCCNC(=O)[C@H](C(C)O)NC(=O)N[C@@H](C(C)O)C(=O)NNC1=O` (stereo partly shown) [Cyclic compound 1], the Splnocyte proliferation recovery entry with Splnocyte is “Splnocyte proliferation recovery 91%”.
